Measurements as given in patent US20150203471A1, “METHODS FOR IMPROVING CHICKEN PRODUCTION” (ELI LILLY AND COMPANY, priority 2012, published 2015).
Structures can show the parent of a compound that is named as a salt. Where two headings read alike, the source gives them in different places.

What was measured:
male broilers [1] = experiment: Study 1: growth performance and carcass responses of male broilers, compounds in feed vs positive and negative controls; type: in vivo, chicken; conditions: 14 days; for change in vivo at 15 ppm, 15 µg/mL: Gallus gallus, feed or water, 336 h; for change in vivo at 15 ppm, 15 µg/mL / Ave daily live wt gain % inc. / Breast wt % inc. / Feed intake % inc. / Gain effic % inc. / Leg wt % inc. / Fat Pad wt % dec.: 15 ppm in feed ad libitum; for change in vivo at 15 ppm, 15 µg/mL / Ave daily live wt gain % inc. / Breast wt % inc. / Feed intake % inc. / Gain effic % inc. / Leg wt % inc.: percent change from negative control; for Fat Pad wt % dec.: percent decrease from negative control; for improvement versus negative control and positive control (in words): positive control = Compound 1
Excerpt: An objective of this study is to evaluate growth performance and carcass responses of male broilers by comparing non-zero dosages of the above compounds versus a positive control (Compound 1) and negative controls. Table 1 sets out the specific treatment groups:
(§1) The route of administration is oral, with the compounds mixed in feed, and provided Ad libitum. The age of the chickens of Day 1 of the study is 35 days old. Body weights are taken on the following days: • 1) Study Day 1 (pen weight) • 2) Study Day 14 (individual animal weights) • 3) Study Day 15 (individual weights on selected animals) • 4) Study Day 16 (blocks 1-5) • 5) Study Day 17 (blocks 6-10).
(§2) Following collection of final weights, the following processing data is collected (hot weights) on individual animals: • 1) Live weight • 2) Hot carcass weight • 3) Fat pad weight • 4) Hot breast muscle weight • 5) Hot bone in leg weight

male broilers [2] = experiment: Study 2: growth performance and carcass responses of male broilers, compounds in feed in the last 14 days prior to slaughter; type: in vivo, chicken
Experimental: Compounds 2, 5, and 9 are used in this study. The study is conducted to evaluate growth performance and carcass responses of male broilers by comparing non-zero dosages of the compounds, versus negative control, administered in the last 14 days prior to slaughter. Table 3 sets out the specific treatment groups.
as §1, with “15” for “14”, “16” for “15”, “animals in animals in blocks 1-4)” for “animals)”, “Day” for “Day 16 (blocks 1-5) • 5) Study Day”, “(individual weights on selected animals in animals in blocks 5-8)” for “(blocks 6-10).”
as §2

[3] = male broilers 35 days old at Day 1, * in cell = not significant vs negative control, read-out: ADG % inc.
[4] = male broilers, * in cell = not significant, read-out: Hot carcass wt % inc.
[5] = male broilers, * in cell = not significant

| SMILES | change in vivo at 15 ppm, 15 µg/mL (male broilers [1]; [3]) | change in vivo at 15 ppm, 15 µg/mL (male broilers [1]; [4]) | Ave daily live wt gain % inc. (male broilers [1]; [5]) | Breast wt % inc. (male broilers [1]; [5]) | Feed intake % inc. (male broilers [1]; [5]) | Gain effic % inc. (male broilers [1]; [5]) | Leg wt % inc. (male broilers [1]; [5]) | Fat Pad wt % dec. (male broilers [1]; [5]) | other results |
| --- | --- | --- | --- | --- | --- | --- | --- | --- | --- |
| CC(C)(Cc1ccc(Oc2ccc(C(=O)O)cc2)cc1)NC[C@H](O)COc1cccc(O)c1 (stereo in doubt) [Compound 8, 4-[4-(2-{[2-hydroxy-3-(3-hydroxyphenoxy)propyl]amino}-2-methylpropyl)phenoxy]benzoic acid dihydrochloride] | -0.4% | 0.8% |  |  |  |  |  |  |  |
| CC(C)(Cc1ccc(Oc2ncccc2C#N)cc1)NC[C@H](O)COc1ccccc1-c1cccs1 [Compound 1, 2-[4-(2-{[(2S)-2-hydroxy-3-(2-thiophen-2-ylphenoxy)propyl]amino}-2-methylpropyl)phenoxy]pyridine-3-carbonitrile, reference compound] | 4.4% | 2.4% | 4.0% | 3.5* % | 2.7% | 1.6* % | 1.2* % | 9.8* % | growth performance parameters improved (in words) (male broilers [1]; 15 ppm in feed, vs negative control): improved ADG, feed intake, average daily live weight gain only |
| CC(C)(Cc1ccc(Oc2ccc(C(=O)N3CCOCC3)cn2)cc1)NC[C@H](O)COc1cccc2[nH]ncc12 [Compound 2, (2S)-1-{[1,1-dimethyl-2-(4-{[5-(morpholin-4-ylcarbonyl)pyridin-2-yl]oxy}phenyl)ethyl]amino}-3-(1H-indazol-4-yloxy)propan-2-ol] | 8.7% | 6.1% | 8.3% | 6.1% | 4.8% | 3.8% | 8.2% | 12.8* % | fat pad weight (in words) (male broilers [1]; 15 ppm in feed): reduce fat pad weight; feed intake (in words) (male broilers [1]; 15 ppm in feed): significant increase in feed intake; gain versus untreated control (in words) (male broilers [1]; 15 ppm in feed): significantly greater than untreated control; improvement versus negative control and positive control (in words) (male broilers [1]; 15 ppm in feed): significantly better improvement than both the negative control and the positive control; ADFI versus negative control group (male broilers [2]; 3.5 ppm in feed): significantly lower; F/G ratio (feed:gain efficiency) versus negative control group (male broilers [2]; 7 ppm in feed): significantly lower; G/F ratio (gain:feed efficiency) versus negative control group (male broilers [2]; 7 ppm in feed): significantly higher; hot bone-in leg weight versus negative control group (male broilers [2]; 7 ppm in feed): significantly higher; hot breast muscle weight versus negative control group (male broilers [2]; 7 ppm in feed): significantly higher; hot carcass weight versus negative control group (male broilers [2]; 7 ppm in feed): significantly higher |
| CC(C)(Cc1ccc(Oc2ccc(S(C)(=O)=O)cc2)cc1)NC[C@H](O)COc1cccc2[nH]c(=S)[nH]c12 [Compound 3, 4-({(2S)-3-[(1,1-dimethyl-2-{4-[4-(methylsulfonyl)phenoxy]phenyl}ethyl)amino]-2-hydroxypropyl}oxy)-1,3-dihydro-2H-benzimidazole-2-thione] | 1.6% | 2.7% |  |  |  |  |  |  |  |
| CC(C)(Cc1ccc(Oc2ncccc2C(N)=O)cc1)NC[C@H](O)COc1ccccc1-c1cc2ccccc2[nH]1 [Compound 4, 2-{4-[2-({(2S)-2-hydroxy-3-[2-(1H-indol-2-yl)phenoxy]propyl}amino)-2-methylpropyl]phenoxy}pyridine-3-carboxamide] | -1.6% | 0.3% |  |  |  |  |  |  |  |
| CC(C)(Cc1ccc(Oc2ccc(C(=O)N3CCOCC3)cn2)cc1)NC[C@H](O)COc1cccc2[nH]ccc12 [Compound 6, (2S)-1-{[1,1-dimethyl-2-(4-{[5-(morpholin-4-ylcarbonyl)pyridin-2-yl]oxy}phenyl)ethyl]amino}-3-(1H-indol-4-yloxy)propan-2-ol] | 3.9% | 3.8% |  |  |  |  |  |  |  |
| CC(C)(Cc1ccc(Oc2ccc(S(C)(=O)=O)cc2S(C)(=O)=O)cc1)NC[C@H](O)COc1cccc2[nH]c(C(N)=O)cc12 [Compound 7, 4-({(2S)-3-[(2-{4-[2,4-bis(methylsulfonyl)phenoxy]phenyl}-1,1-dimethylethyl)amino]-2-hydroxypropyl}oxy)-1H-indole-2-carboxamide] | 2% | 1.2% |  |  |  |  |  |  |  |
| CC(C)(Cc1ccc(Oc2ncccc2C(N)=O)cc1)NC[C@H](O)COc1cccc2[nH]ncc12 [Compound 9, 2-[4-(2-{[(2S)-2-hydroxy-3-(1H-indazol-4-yloxy)propyl]amino}-2-methylpropyl)phenoxy]pyridine-3-carboxamide] | 8.9% | 5% | 9.3% | 4.8% | 2.1* % | 6.7% | 7.9% | 17.8% | fat pad weight (in words) (male broilers [1]; 15 ppm in feed): reduce fat pad weight; feed intake (in words) (male broilers [1]; 15 ppm in feed): significant increase in feed intake; gain versus untreated control (in words) (male broilers [1]; 15 ppm in feed): significantly greater than untreated control; significance of the fat pad weight difference (male broilers [1]; 15 ppm in feed): significant; improvement versus negative control and positive control (in words) (male broilers [1]; 15 ppm in feed): significantly better improvement than both the negative control and the positive control; F/G ratio (feed:gain efficiency) versus negative control group (male broilers [2]; 3.5 ppm in feed): significantly lower; G/F ratio (gain:feed efficiency) versus negative control group (male broilers [2]; 3.5 ppm in feed): significantly higher; hot bone-in leg weight versus negative control group (male broilers [2]; 3.5 ppm in feed): significantly higher; hot breast muscle weight versus negative control group (male broilers [2]; 3.5 ppm in feed): significantly higher; hot carcass weight versus negative control group (male broilers [2]; 3.5 ppm in feed): significantly higher; ADFI versus negative control group (male broilers [2]; 7 ppm in feed): significantly higher; ADG versus negative control group (male broilers [2]; 7 ppm in feed): significantly higher; F/G ratio (feed:gain efficiency) versus negative control group (male broilers [2]; 7 ppm in feed): significantly lower; G/F ratio (gain:feed efficiency) versus negative control group (male broilers [2]; 7 ppm in feed): significantly higher; hot bone-in leg weight versus negative control group (male broilers [2]; 7 ppm in feed): significantly higher; hot breast muscle weight versus negative control group (male broilers [2]; 7 ppm in feed): significantly higher; hot carcass weight versus negative control group (male broilers [2]; 7 ppm in feed): significantly higher |
